In PMC9852545, “The crystal structure of Vibrio cholerae (6-4) photolyase reveals interactions with cofactors and a DNA-binding region” (The Journal of Biological Chemistry, 2022):

Target: T1, Vc (6-4) PL (Vibrio cholerae, UniProt Q9KLD7)
T1 construct: gene VC_A0809
Assay: X-ray crystallography, […] Å
Assay type: binding
Settings: 100 K

T1 sequence (Q9KLD7 1-516 limits assumed): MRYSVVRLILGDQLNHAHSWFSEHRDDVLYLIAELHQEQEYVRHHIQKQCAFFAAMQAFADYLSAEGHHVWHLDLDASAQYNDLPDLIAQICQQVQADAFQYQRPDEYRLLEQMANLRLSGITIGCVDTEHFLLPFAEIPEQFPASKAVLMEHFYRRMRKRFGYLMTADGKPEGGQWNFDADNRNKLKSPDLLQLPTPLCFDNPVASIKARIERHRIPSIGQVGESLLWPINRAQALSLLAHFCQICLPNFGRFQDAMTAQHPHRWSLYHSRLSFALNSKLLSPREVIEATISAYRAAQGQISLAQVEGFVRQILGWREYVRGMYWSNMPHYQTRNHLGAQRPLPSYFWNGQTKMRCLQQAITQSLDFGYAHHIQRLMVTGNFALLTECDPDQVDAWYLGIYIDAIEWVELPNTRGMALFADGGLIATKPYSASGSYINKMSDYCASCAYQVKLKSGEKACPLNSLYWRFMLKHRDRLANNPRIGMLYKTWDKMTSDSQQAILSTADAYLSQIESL

Cc1nc2c(=O)[nH]c(=O)nc-2n(C[C@H](O)[C@H](O)[C@H](O)CO)c1C [DMRL]
X-ray crystallography, 2.5 Å (photoantenna site in alpha/beta domain, co-purified): there is a very well-defined electron density of the DMRL and interacting amino acid residues

Cc1cc2nc3c(=O)[nH]c(=O)nc-3n(C[C@H](O)[C@H](O)[C@H](O)COP(=O)(O)OP(=O)(O)OC[C@H]3O[C@@H](n4cnc5c(N)ncnc54)[C@H](O)[C@@H]3O)c2cc1C [FAD]
X-ray crystallography, 2.5 Å (catalytic site in alpha-helical domain, co-purified, redox state not stated): FAD has a U-shaped conformation in the α-helical domain

[S]12[Fe]3[S]4[Fe]1[S]1[Fe]2[S]3[Fe]41 [[4Fe-4S] cluster]
X-ray crystallography, 2.5 Å (bound by Cys357, Cys445, Cys448, Cys461, covalent coordination, co-purified aerobically): Cys357, Cys445, Cys448, and Cys461 sulfide atoms make bonds with Fe atoms in the cluster
